What all share (type): physicochemical
Data set [1] can be described thus: Caking test (Experiment 1-4). Details: key: “Caked”, (+): Sample clearly keeps the hemispherical shape of the bottom of the tube even when placed on the plate; “Slightly caked”, (±): Sample slightly but distinguishably shows the hemispherical shape of the bottom of the tube; “Not caked” (−): Sample does not keep the hemispherical shape of the bottom of the tube. As to conditions: 1 g in 14-ml polypropylene tube, 50° C., 24 hours, macroscopic observation. As for the experimental part:
The following experiment was performed to investigate the caking of respective Test samples 1 to 4: One gram aliquots of each of Test samples 1 to 4, prepared in Experiment 1-1, were separately filled into “FALCON TUBE 2059”, a product name of a 14-ml polypropylene cylindrical tube (1.7 cm in diameter, 10 cm in height) having a hemispherical bottom shape and a cap, commercialized by Becton, Dickinson and Company, New Jersey, USA. The tubes were uprightly set to a tube rack and allowed to stand for 24 hours, after the tube rack was placed in “IC-410”, a product name of an incubator commercialized Advantec Toyo Kaisha, Ltd., Tokyo, Japan, controlled at 50° C. After the incubation, the tubes were taken out from the incubator, followed by removing each cap, taking out each test sample from each tube to place it on a black-plastic-plane plate by turning the tubes upside down slowly, and macroscopically observing the conditions of the resulting test samples.

Data set [2] is described as follows: Storage stability test (Experiment 3-2). Details: key: “Caked” (+), clump(s) is/are detected in a test sample and the flowability of the test sample has lowered in comparison with that at the initiation of the test; “Not caked” (−), no clump is detected in a test sample and the flowability of the test sample has not been changed in comparison with that at the initiation of the test. The note with it: 10 kg in open polyethylene-double-bag in uncapped steel can, 45 days; flowability and caked state. The text has this: To confirm that the caking test conducted in Experiment 1-4, etc., is a proper test for evaluating the caking of a particulate composition containing anhydrous crystalline ascorbic acid 2-glucoside when actually stored, Test sample 1 obtained in Experiment 1-1, Test samples 10 to 15 obtained in Experiment 3-1, and Test sample 16 were subjected to a storage stability test which was designed by taking account of conditions, environment, and period of time for actual storage of a particulate composition containing anhydrous crystalline ascorbic acid 2-glucoside.
Ten kilogram aliquots of any of Test samples 1 and 10 to 16 were respectively weighed and placed in a polyethylene-double-bag (800 mm by 600 mm) for each test sample. Then, each bag was placed in a 18-liter steel can in such a manner of allowing the opening part of each bag to open and stand upright without closing the opening part, allowing the bags to stand without capping the steel cans, and storing for 45 days in a room away from a relatively high temperature and humidity. After 45 days storage, each polyethylene-double-bag enclosing any of the test samples was taken out from the cans, and the samples were taken out from the bags and placed on a black-plastic-plane-plate for macroscopic observation of their flowabilities and caked states.
The test samples were judged about their caking by the following criteria: “Caked” (+), clump(s) is/are detected in a test sample and the flowability of the test sample has lowered in comparison with that at the initiation of the test; and “Not caked” (−), no clump is detected in a test sample and the flowability of the test sample has not been changed in comparison with that at the initiation of the test. The storage form of each test sample in the storage stability test is the same as that of a quasi-drug-grade powder that is commercially distributed and stored, except for not closing the opening part of the bag with a rubber band, not putting in any desiccant, and being stored in a steel can without closing it with a lid. The above three differences were of those, which had been set as a storage environment for a storage test that was slightly harder than an actual storage environment, to expedite the test results. The results are in Table 3 in parallel.

A short description of data set [3]: Solubility in hydrophilic solvent, 30% 1,3-butylene glycol (Experiment 6). As to conditions: same test as in Experiment 6. The text has this:
Any one of the above test samples and the particulate compositions of Examples 1 to 4 was weighed 0.25 g and placed in “FALCON TUBE 2059”, a product name of a 14-ml polypropylene cylindrical tube having a hemispherical bottom shape and a cap, commercialized by Becton, Dickinson and Company, New Jersey, USA. […]

We go through 27 molecules from patent publication US9265781B2, “Process for producing a particulate composition comprising anhydrous crystalline 2-O-alpha-D-glucosyl-L-ascorbic acid” (HAYASHIBARA CO., LTD., priority 2009, dated 2016).

Turning to `O=C1O[C@H]([C@@H](O)CO)C(O)=C1O[C@H]1O[C@H](CO)[C@@H](O)[C@H](O)[C@H]1O` [Test sample 11, 2-O-α-D-glucosyl-L-ascorbic acid], the Caking result in data set [1] was “±”. For the same molecule, the Storage stability result in data set [2] is on record as “+”.
As to `O=C1O[C@H]([C@@H](O)CO)C(O)=C1O[C@H]1O[C@H](CO)[C@@H](O)[C@H](O)[C@H]1O` [Example 7, 2-O-α-D-glucosyl-L-ascorbic acid], in data set [1], the Caking entry is “−”. The “Solubility in 1,3-butylene glycol (judgement in words)” value (“Solubility in 1,3-butylene glycol” for short) in data set [3] is “Passable solubility”.
`O=C1O[C@H]([C@@H](O)CO)C(O)=C1O[C@H]1O[C@H](CO)[C@@H](O)[C@H](O)[C@H]1O` [Test sample 1, 2-O-α-D-glucosyl-L-ascorbic acid]: the Caking result in data set [1] is “−”. For the same molecule, the Storage stability entry in data set [2] is on record as “−”.
For the molecule `O=C1O[C@H]([C@@H](O)CO)C(O)=C1O[C@H]1O[C@H](CO)[C@@H](O)[C@H](O)[C@H]1O` [Test sample 8, 2-O-α-D-glucosyl-L-ascorbic acid], the Caking entry in data set [1] is “±”.
On to `O=C1O[C@H]([C@@H](O)CO)C(O)=C1O[C@H]1O[C@H](CO)[C@@H](O)[C@H](O)[C@H]1O` [Test sample 5, 2-O-α-D-glucosyl-L-ascorbic acid], for which the Caking result in data set [1] is “−”.
For the molecule `O=C1O[C@H]([C@@H](O)CO)C(O)=C1O[C@H]1O[C@H](CO)[C@@H](O)[C@H](O)[C@H]1O` [Example for Reference 1, 2-O-α-D-glucosyl-L-ascorbic acid], the Caking entry in data set [1] was “−”. In addition, in data set [3], the “Solubility in 1,3-butylene glycol” value is “Impassable solubility”. The Storage stability entry in data set [2] is listed as “−”.
With `O=C1O[C@H]([C@@H](O)CO)C(O)=C1O[C@H]1O[C@H](CO)[C@@H](O)[C@H](O)[C@H]1O` [Test sample 2, 2-O-α-D-glucosyl-L-ascorbic acid], in data set [1], the Caking result is recorded as “+”.
The same measure, in the same setting: the result for `O=C1O[C@H]([C@@H](O)CO)C(O)=C1O[C@H]1O[C@H](CO)[C@@H](O)[C@H](O)[C@H]1O` [Test sample 3, 2-O-α-D-glucosyl-L-ascorbic acid] reads “+”.
As to `O=C1O[C@H]([C@@H](O)CO)C(O)=C1O[C@H]1O[C@H](CO)[C@@H](O)[C@H](O)[C@H]1O` [Example 3, 2-O-α-D-glucosyl-L-ascorbic acid], the Caking entry in data set [1] is “−”. Also, in data set [2], the Storage stability result was “−”.
With `O=C1O[C@H]([C@@H](O)CO)C(O)=C1O[C@H]1O[C@H](CO)[C@@H](O)[C@H](O)[C@H]1O` [Example 1, 2-O-α-D-glucosyl-L-ascorbic acid], in data set [1], the Caking result is on record as “−”. Also, the Storage stability result in data set [2] is “−”.
Consider `O=C1O[C@H]([C@@H](O)CO)C(O)=C1O[C@H]1O[C@H](CO)[C@@H](O)[C@H](O)[C@H]1O` [Test sample 28, 2-O-α-D-glucosyl-L-ascorbic acid], for which, in data set [1], the Caking entry is “+”.
For `O=C1O[C@H]([C@@H](O)CO)C(O)=C1O[C@H]1O[C@H](CO)[C@@H](O)[C@H](O)[C@H]1O` [Test sample 19, 2-O-α-D-glucosyl-L-ascorbic acid], the Caking result in data set [1] is reported as “−”. The Storage stability result in data set [2] is recorded as “−”.
In the case of `O=C1O[C@H]([C@@H](O)CO)C(O)=C1O[C@H]1O[C@H](CO)[C@@H](O)[C@H](O)[C@H]1O` [Test sample 20, 2-O-α-D-glucosyl-L-ascorbic acid], in data set [1], the Caking entry was “+”. Also, the Storage stability entry in data set [2] was “+”.
As to `O=C1O[C@H]([C@@H](O)CO)C(O)=C1O[C@H]1O[C@H](CO)[C@@H](O)[C@H](O)[C@H]1O` [Test sample 7, 2-O-α-D-glucosyl-L-ascorbic acid], the Caking entry in data set [1] is listed as “−”.
Consider `O=C1O[C@H]([C@@H](O)CO)C(O)=C1O[C@H]1O[C@H](CO)[C@@H](O)[C@H](O)[C@H]1O` [Comparative Example 1, 2-O-α-D-glucosyl-L-ascorbic acid], for which the Caking entry in data set [1] is reported as “+”. The “Solubility in 1,3-butylene glycol” value in data set [3] is “Passable solubility”.
As for `O=C1O[C@H]([C@@H](O)CO)C(O)=C1O[C@H]1O[C@H](CO)[C@@H](O)[C@H](O)[C@H]1O` [Test sample 21, 2-O-α-D-glucosyl-L-ascorbic acid], in data set [1], the Caking result is “−”. In addition, the Storage stability result in data set [2] is listed as “−”.
For `O=C1O[C@H]([C@@H](O)CO)C(O)=C1O[C@H]1O[C@H](CO)[C@@H](O)[C@H](O)[C@H]1O` [Example 4, 2-O-α-D-glucosyl-L-ascorbic acid], in data set [1], the Caking result was “−”. Further, the Storage stability result in data set [2] was “−”.
For `O=C1O[C@H]([C@@H](O)CO)C(O)=C1O[C@H]1O[C@H](CO)[C@@H](O)[C@H](O)[C@H]1O` [Example 6, 2-O-α-D-glucosyl-L-ascorbic acid], the Caking entry in data set [1] was “−”. In data set [3], the “Solubility in 1,3-butylene glycol” value is “Passable solubility”.
As for `O=C1O[C@H]([C@@H](O)CO)C(O)=C1O[C@H]1O[C@H](CO)[C@@H](O)[C@H](O)[C@H]1O` [Test sample 4, 2-O-α-D-glucosyl-L-ascorbic acid], the Caking result in data set [1] was “−”.
For `O=C1O[C@H]([C@@H](O)CO)C(O)=C1O[C@H]1O[C@H](CO)[C@@H](O)[C@H](O)[C@H]1O` [Test sample 9, 2-O-α-D-glucosyl-L-ascorbic acid], the Caking result in data set [1] is given as “+”.
Turning to `O=C1O[C@H]([C@@H](O)CO)C(O)=C1O[C@H]1O[C@H](CO)[C@@H](O)[C@H](O)[C@H]1O` [Test sample 22, 2-O-α-D-glucosyl-L-ascorbic acid], the Caking entry in data set [1] is “−”. Also, in data set [2], the Storage stability result is on record as “−”.
Take `O=C1O[C@H]([C@@H](O)CO)C(O)=C1O[C@H]1O[C@H](CO)[C@@H](O)[C@H](O)[C@H]1O` [Example 2, 2-O-α-D-glucosyl-L-ascorbic acid]: the Caking entry in data set [1] is on record as “−”. For the same molecule, in data set [2], the Storage stability result is “−”.
With `O=C1O[C@H]([C@@H](O)CO)C(O)=C1O[C@H]1O[C@H](CO)[C@@H](O)[C@H](O)[C@H]1O` [Example 5, 2-O-α-D-glucosyl-L-ascorbic acid], the Caking result in data set [1] is recorded as “−”. The “Solubility in 1,3-butylene glycol” value in data set [3] is “Passable solubility”.
`O=C1O[C@H]([C@@H](O)CO)C(O)=C1O[C@H]1O[C@H](CO)[C@@H](O)[C@H](O)[C@H]1O` [Test sample 10, 2-O-α-D-glucosyl-L-ascorbic acid]: the Caking entry in data set [1] is given as “+”. For the same molecule, the Storage stability result in data set [2] is “+”.
Turning to `O=C1O[C@H]([C@@H](O)CO)C(O)=C1O[C@H]1O[C@H](CO)[C@@H](O)[C@H](O)[C@H]1O` [Comparative Example 2, 2-O-α-D-glucosyl-L-ascorbic acid], the Caking result in data set [1] was “+”. In addition, the “Solubility in 1,3-butylene glycol” value in data set [3] is “Passable solubility”.
Regarding `O=C1O[C@H]([C@@H](O)CO)C(O)=C1O[C@H]1O[C@H](CO)[C@@H](O)[C@H](O)[C@H]1O` [Example 8, 2-O-α-D-glucosyl-L-ascorbic acid], the Caking entry in data set [1] is “− and ±”. Further, the “Solubility in 1,3-butylene glycol” value in data set [3] is recorded as “Passable solubility”.
Turning to `O=C1O[C@H]([C@@H](O)CO)C(O)=C1O[C@H]1O[C@H](CO)[C@@H](O)[C@H](O)[C@H]1O` [Test sample 6, 2-O-α-D-glucosyl-L-ascorbic acid], in data set [1], the Caking result was “−”.
